In patent US7666905B2, “Compositions comprising hepoxilin analogs and their use in the treatment of cancer” (priority 2002, dated 2010):

Key:
[1] = system: K562 CML cells; experiment: 3H-thymidine incorporation in K562 CML cells; assay type: cell-based, human; conditions: for effect on K562 cell growth: FIGS. 1-4
Experimental: Cell culture. Human leukemia K562 cells, obtained from the Hematology Department of the Hospital for Sick Children, were maintained as suspension cultures in RPMI 1640 medium containing 100 U/ml penicillin G, 100 μg/ml streptomycin, 10% (v/v) fetal bovine serum in a humidified atmosphere of 5% CO2 at 37° C. The ability of the cells to exclude Trypan Blue dye was used to assess cell viability.
Cells were seeded in 24 well dishes at a cell number of 5×10^4 cells/ml in starving medium (SM) of alpha Modified Eagle's Medium without fetal bovine serum (FBS) supplementation and incubated at 37° C. for 12 h. Tritiated thymidine ([^3H]-Thymidine; 25 Ci/mmol stock) was diluted in SM to a final activity of […]. The pharmacological agents tested were all diluted from their respective stocks to the desired concentration(s) with the tritiated SM. Cells receiving no drug treatments and cells treated with DMSO only were used as controls. SM was removed from the dishes, then treated with the various pharmacological agents in SM containing tritiated thymidine for 6 h at 37° C. PBT-3 was used at 2.8 μM in DMSO, (other than in dose response studies), I-BOP was used at 1.0 μM (in DMSO) and U46619 was used at 1.0 μM (in DMSO). Cells were trypsinized after 6 h and washed through Whatman GF-B/C membranes along with the supernatant. Dried membranes were deposited in scintillation vials with 8ml scintillation cocktail and the radioactivity present in the cells was counted with a liquid scintillation counter.
The effect of hepoxilin analogs on leukemia cells was examined using the CML K562 cell line. This cell line was derived from a human CML patient and is an accepted model of human chronic leukemia. The K562 cell line expresses the bcr/abl protein (Lozzio & Lozzio, 1975). It is relatively resistant to apoptosis (Martin et al., 1990), but ST1571 and other agents appear to control cell growth for a while before the cells overcome the drug effect (Weisberg & Griffin, 2000).

[2] = system: K562 cells; experiment: Nuclear fragmentation by Hoechst 33342 staining of K562 cells; assay type: cell-based, human; conditions: Hoechst 33342 dye, FIG. 5 Panel B; STI571 1 μM, I-BOP 1 μM
Experimental: Quantification of apoptosis and cell viability. Induction of apoptosis and loss of cell viability after treatment with PBT-3 were assessed by staining the cells with Hoechst 33342 dye. […] Pellets were suspended with 5 μg/ml of Hoechst 33342 dye for 10 minutes at room temperature. Micrographs of the DNA-stained cells were taken with a Zeiss Axiovert 100 TV video camera. Images were captured using Axiovision version 3.0.6 and processed using Photoshop 5.0. Apoptotic cells were identified based on nuclear fragmentation and chromatin condensation around the nucleus.
Nuclear fragmentation was assessed by direct microscopy of treated cells stained with Hoechst 33342 dye.

[3] = system: K562 cells; experiment: 3H thymidine uptake in K562 cells after 2 days treatment, cell number reduction and culture without drug; assay type: cell-based, human; conditions: PBT analogues 28 μM, I-BOP and STI571 1 μM, then 3 days without compounds, FIG. 13
Experimental: K562 cells (3×10^5 cells/plate) were cultured for 2 days in 1% FBS/αMEM in the presence of 28 μM PBT-3 (∘) or 1 μM STI (●) and ^3H thymidine incorporation was determined. Untreated control cells (□) and cells treated with DMSO alone (▪) were also examined (test compounds were dissolved in DMSO). Results are shown in FIG. 12, Panel A. The cell number in all dishes was reduced to that observed after two days of PBT-3 treatment (7.5×10^3/ml) and the cells were subsequently cultured for 3 days in 10% FBS in the absence of the test compounds.
The hepoxilin analogs compare very favourably in efficacy with STI571.

[4] = system: MDA-MB 231 breast cancer cells; experiment: FACS analysis of breast cancer cell line MDA-MB 231; assay type: cell-based; conditions: FIG. 7
Experimental: (§1) Cells were seeded at 1×10^6 cells/ml and treated as above. Cells were scraped into 1×PBS, pelleted, washed, and repelleted as above. Cells were washed with PBS twice and scraped. The cells were pelleted by centrifugation at 1500 rpm, 5 min, at 23° C. and washed again. Cells were fixed with 50 μl PBS/HBSS with 2% calf serum and then with addition of 1 ml ice cold 80% ethanol. Samples were incubated on ice for 30 min and PBS/HBSS fixing was repeated and followed by adding 1 ml 70% ethanol. Centrifugation (1500 rpm, 5 min, room temperature) was performed to produce cell pellets that were resuspended by 250 μl of 0.1 mg/ml Propidium Iodide (Sigma) with 0.6% NP-40. 250 μl of 2 mg/ml RNAse was added and mixed well. Cells were incubated in the dark for 30 min at room temperature. Samples were then filtered through 85 μm Nitex mesh and the stained cells were analyzed on a flow cytometer of FACScan (Becton-Dickinson). The acquisition was done with 10,000 events per sample. The CellQuest (Becton-Dickinson) statistic analysis was performed in each individual experiment.

[5] = system: Bcl-XL; experiment: Western blot of Bcl-XL expression in K562 cells; assay type: cell-based, human; conditions: FIG. 11
Experimental: (§2) Cells were seeded in 100 mm culture dishes at a cell count of 5×10^4 cells/ml in 10 ml of SM and incubated at 37° C. for 12 h. Drug treatments were: DMSO as control, 0.05 μM I-BOP in DMSO, 0.5 μM I-BOP with 2.8 μM PBT-3, or 2.8 μM PBT-3 in DMSO. These concentrations were chosen based on results generated from the cell proliferation studies using thymidine incorporation. Cells were treated with drugs as described above for 6 h. After 6 h, cells were washed with 1×PBS and scraped, pelleted by centrifugation (1500 rpm, 5 min, room temperature), and washed again and pelleted as above. 200 μl cell lysis buffer (20 mM Tris-d pH 7.4, 150 mM NaCl, 1 mM EDTA, 1 mM EGTA, 1% Tx-100, 2.5 mM […], 1 mM β-glycerophosphate, 1 mM […], 1 μg/ml leupeptin, and 1 mM PMSF) were added to resuspend each pellet followed by 30 minutes of incubation on ice. […] Protein concentration was determined using a BSA standard with a BCA protein assay kit, prior to Western blotting.
(§3) Aliquots of protein (40 μg) were heated to 90° C. in SDS sample load buffer for 5 minutes, then separated by SDS-PAGE on 10% gels and transferred to nitrocellulose membranes. […] Membranes were then washed 5× in TBS-T. Bound first antibodies were detected by HRP-anti-rabbit immunoglobulins at 1:1000 in 5% non-fat dry milk for 1 h at room temperature, washing 5× in TBS-T then with enhanced chemiluminscent autoradiography (ECL). […]

[6] = system: normal aortic smooth muscle cells; experiment: FACS analysis of apoptosis in normal aortic smooth muscle cells; assay type: cell-based; conditions: FIG. 9
Experimental: as §1

[7] = system: caspase-3; experiment: Western blot of caspase-3 activation (cleavage to 17 kDa fragment) in K562 cells; assay type: cell-based, human; conditions: FIG. 14
Experimental: Western blot. […] Treatment was terminated by washing cells with ice-cold PBS buffer. Cell lysates were prepared in buffer containing 20 mM Tris-HCl pH 7.4, 150 mM NaCl, 1 mM EDTA, 1 mM EGTA, 1% Triton X-100, 2.5 mM sodium pyrophosphate, 1 mM β-glycerophosphate, 1 mM sodium orthovanadate, 1 mM PMSF and 1 μM leupeptin on ice for 60 minutes. The lysates were clarified by centrifugation at 15,000×g for 15 minutes at 4° C. Lysates were subjected to protein assay and kept at −80° C. 250 μg protein was immunoprecipitated with anti-cytochrome c antibody or anti-caspase-3 antibody coupled to protein A-agarose beads. After washing of the immunocomplexes with lysis buffer, SDS-PAGE sample loading buffer was added and the mixture was boiled for 5 minutes. After centrifugation, the supernatant was loaded onto 10-12% SDS-PAGE gel, and transferred to the Trans-Blot Nitrocellulose membrane (Bio-Rad). Protein bands on the nitrocellulose membranes were checked visually with Ponceau S-staining to assure equivalent protein loading/transfer comparing different samples. […] Bound antibodies were detected using enhanced chemilluminescence (ECL) kit and the membranes were exposed to Hyperfilm for ECL.

[8] = system: 3T3 L1 adipocytes; experiment: FACS analysis of apoptosis in normal 3T3 L1 adipocytes; assay type: cell-based; conditions: FIG. 10
Experimental: as §1

[9] = system: Akt; experiment: Western blot of Akt phosphorylation in K562 cells; assay type: cell-based, human; conditions: FIG. 11
Experimental: as §2, §3

[10] = system: normal bone marrow cells; experiment: FACS analysis of apoptosis in normal bone marrow cells; assay type: cell-based; conditions: FIG. 8
Experimental: as §1

[11] = system: K562 CML cells; experiment: DNA fragmentation (laddering) by agarose gel electrophoresis in K562 cells; assay type: cell-based, human; conditions: PBT-3 2.8 μM, 24 or 72 hours, FIG. 5 Panel A
Experimental: Analysis of DNA fragmentation by gel electrophoresis. […] The samples were loaded on 2% agarose gel containing ethidium bromide (0.2 μg/ml). DNA fragments of known size were used as a reference marker. After electrophoresis at 25 V for 5 hours, the gels were photographed under trans-UV illumination.
Studies were carried out to determine if PBT-3 affected apoptosis in K562 CML cells. Cells were cultured for 24 or 72 hours in the presence of growth medium (control) or PBT-3 (2.8 μM). Apoptosis was examined by DNA laddering. Cultures were harvested, DNA was extracted with DNeasy (Qiagen) and samples were loaded on a 2% agarose gel containing 0.2 μg/ml ethidium bromide. A λ BstII DNA digest with DNA fragments of known size was used as a reference marker. After electrophoresis at 25V for 5 h, gels were photographed under trans-UV illumination.

Row | SMILES | effect on K562 cell growth [1] | apoptotic effect (fragmentation of the nucleus and chromatin condensation) [2] | effect on expression of the Bcl pathway (Bcl-XL) [5] | effect on phosphorylation of Akt [9] | also measured
1 | O=C(O)CCC/C=C\CC1C2CCC(O2)C1/C=C/C(O)COc1ccc(I)cc1 (stereo not drawn) [I-BOP, [1S-[1α,2α(Z),3β(1E, 3S*), 4α]]-7-[3-[3-hydroxy-4-(iodophenoxy)-1-butenyl]-7-oxabicyclo[2.2.1]hept-2-yl]-5-heptenoic acid, reference compound] | neither the thromboxane receptor agonists nor the thromboxane receptor antagonist affected K562 cell growth | No similar apoptotic effect |  |  | 
2 | CCCCC/C=C\CC1CC1/C=C/C(O)C/C=C\CCCC(=O)OC [PBT-2, 8(R)-hydroxy-11, 12-cyclopropyl-eicosa-5Z, 9E, 14Z-trienoic acid methyl ester] |  |  |  |  | effectiveness in inhibiting cell growth (rank among treatments) [3]: most effective treatment
3 | CCCCC/C=C\CC1CC1C(O)/C=C\C/C=C\CCCC(=O)OC [PBT-3, 10(S)-hydroxy-11,12-cyclopropyl-eicosa-5Z,8Z,14Z-trienoic acid methyl ester] | inhibited growth of K562 cells | produced apoptotic cells | essentially inactive | blocked phosphorylation of Akt | synchronisation of cells (to Go phase) [4]: synchronisation effect; concentration of maximum effect on inhibition of K562 cell growth ([1]; FIG. 1): 1 µg/mL; apoptotic effect on normal aortic smooth muscle cells [6]: no apoptotic effect; time of caspase-3 activation (cleavage into a 17 kDa fragment) [7]: 6 h; apoptotic effect on normal (3T3 L1) adipocytes [8]: no apoptotic effect; apoptotic effect on normal bone marrow cells [10]: no apoptotic effect; DNA fragmentation associated with apoptosis [11]: causes DNA fragmentation associated with apoptosis
4 | O=C(O)CCC/C=C\C[C@@H]1[C@H](CNNC(=O)Nc2ccccc2)[C@H]2CC[C@@H]1O2 [SQ 29,548] | neither the thromboxane receptor agonists nor the thromboxane receptor antagonist affected K562 cell growth |  |  |  | 
5 | Cc1ccc(NC(=O)c2ccc(CN3CCN(C)CC3)cc2)cc1Nc1nccc(-c2cccnc2)n1 [STI571, Imatinib, reference compound] |  |  | blocked the expression of the Bcl pathway (Bcl-XL) | increased it | 
6 | CCCCC[C@H](O)/C=C/[C@@H]1[C@@H](C/C=C\CCCC(=O)O)[C@H]2CO[C@@H]1C2 [U46619] | neither the thromboxane receptor agonists nor the thromboxane receptor antagonist affected K562 cell growth |  |  |  | 
